Five compounds from ChEMBL document CHEMBL1137963, “New oligomers of conduritol-F and muco-inositol. Synthesis and biological evaluation as glycosidase inhibitors” (Bioorg Med Chem Lett, 2004) can be followed below.

Activity calls are given as the source filed them. No cut-off for these calls is given here.

Experiment [1] concerns the target Beta-glucosidase A (Caldicellulosiruptor saccharolyticus) (UniProt P10482). Kind of experiment: Concentration required to inhibit beta-glucosidase; IA means inactive.
For experiment [2], the target named is T1, Beta-mannosidase (Rattus norvegicus) (UniProt Q4FZV0).
T1 sequence (whole entry): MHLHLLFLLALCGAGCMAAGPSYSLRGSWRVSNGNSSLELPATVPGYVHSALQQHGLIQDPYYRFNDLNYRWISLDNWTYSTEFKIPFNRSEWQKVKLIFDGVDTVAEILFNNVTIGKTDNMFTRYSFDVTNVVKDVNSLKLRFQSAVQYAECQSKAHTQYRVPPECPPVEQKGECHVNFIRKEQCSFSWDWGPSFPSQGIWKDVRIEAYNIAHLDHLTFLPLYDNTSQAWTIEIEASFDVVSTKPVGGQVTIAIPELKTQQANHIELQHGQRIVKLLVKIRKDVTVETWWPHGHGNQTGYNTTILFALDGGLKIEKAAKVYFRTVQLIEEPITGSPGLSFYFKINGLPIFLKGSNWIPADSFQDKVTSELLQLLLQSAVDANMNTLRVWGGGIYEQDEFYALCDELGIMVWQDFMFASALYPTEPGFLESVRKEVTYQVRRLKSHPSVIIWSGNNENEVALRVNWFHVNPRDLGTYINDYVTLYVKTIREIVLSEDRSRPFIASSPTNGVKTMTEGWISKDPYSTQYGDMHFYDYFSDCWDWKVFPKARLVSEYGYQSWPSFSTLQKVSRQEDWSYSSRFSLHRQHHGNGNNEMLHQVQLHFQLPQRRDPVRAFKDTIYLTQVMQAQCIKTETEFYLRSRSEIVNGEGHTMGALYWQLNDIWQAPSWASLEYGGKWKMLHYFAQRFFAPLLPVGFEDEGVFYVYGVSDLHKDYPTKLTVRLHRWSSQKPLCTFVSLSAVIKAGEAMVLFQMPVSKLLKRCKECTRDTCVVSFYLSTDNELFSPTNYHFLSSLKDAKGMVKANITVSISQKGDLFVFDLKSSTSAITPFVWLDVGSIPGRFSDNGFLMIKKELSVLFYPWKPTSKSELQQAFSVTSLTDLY
Kind of experiment: Concentration required to inhibit beta-mannosidase; IA means inactive.

The nature of experiment [3]: Concentration required to inhibit alpha-mannosidase; IA means inactive.
Experiment [4] addresses T2, Alpha-galactosidase A (Homo sapiens) (UniProt P06280).
T2 sequence (whole entry): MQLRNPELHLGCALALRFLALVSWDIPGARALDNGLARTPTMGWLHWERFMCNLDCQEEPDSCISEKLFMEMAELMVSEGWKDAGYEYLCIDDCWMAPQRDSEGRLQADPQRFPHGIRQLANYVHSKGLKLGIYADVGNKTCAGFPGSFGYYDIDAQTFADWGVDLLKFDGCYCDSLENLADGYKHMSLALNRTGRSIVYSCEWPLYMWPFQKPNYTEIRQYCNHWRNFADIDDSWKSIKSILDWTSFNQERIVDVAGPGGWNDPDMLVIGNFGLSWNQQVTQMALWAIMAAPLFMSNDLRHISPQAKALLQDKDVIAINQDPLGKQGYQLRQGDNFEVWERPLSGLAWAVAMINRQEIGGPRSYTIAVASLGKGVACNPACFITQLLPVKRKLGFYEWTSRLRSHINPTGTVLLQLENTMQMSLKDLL
Kind of experiment: Concentration required to inhibit alpha-galactocosidase; IA means inactive.

The target of experiment [5] is T3, Beta-galactosidase (Homo sapiens) (UniProt P16278).
T3 sequence (whole entry): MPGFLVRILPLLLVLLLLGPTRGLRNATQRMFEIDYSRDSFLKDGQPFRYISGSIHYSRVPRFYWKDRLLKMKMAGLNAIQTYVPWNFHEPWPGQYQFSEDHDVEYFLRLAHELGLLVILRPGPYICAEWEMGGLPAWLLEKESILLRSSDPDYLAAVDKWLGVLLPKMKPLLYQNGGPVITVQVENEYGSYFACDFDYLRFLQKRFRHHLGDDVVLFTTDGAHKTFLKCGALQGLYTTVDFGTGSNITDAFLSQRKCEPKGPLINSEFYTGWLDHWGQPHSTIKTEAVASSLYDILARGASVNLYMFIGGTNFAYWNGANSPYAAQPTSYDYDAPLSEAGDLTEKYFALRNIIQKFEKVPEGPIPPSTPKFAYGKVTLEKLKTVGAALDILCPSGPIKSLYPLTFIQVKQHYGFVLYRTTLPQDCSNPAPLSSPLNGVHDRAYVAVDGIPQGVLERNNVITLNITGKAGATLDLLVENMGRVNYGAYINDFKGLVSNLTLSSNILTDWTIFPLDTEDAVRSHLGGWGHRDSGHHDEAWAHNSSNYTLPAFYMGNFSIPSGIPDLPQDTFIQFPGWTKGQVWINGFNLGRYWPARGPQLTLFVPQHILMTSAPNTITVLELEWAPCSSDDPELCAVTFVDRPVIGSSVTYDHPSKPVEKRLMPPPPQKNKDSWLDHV
Kind of experiment: Concentration required to inhibit beta-galactosidase.

For experiment [6], the target named is Maltase-glucoamylase (Homo sapiens) (UniProt O43451). Kind of experiment: Concentration required to inhibit alpha-glucosidase.
Experiment [7] shares this target. Kind of experiment: Concentration required to inhibit alpha-glucosidase; IA means inactive.
For experiment [8], the target named is T3, Beta-galactosidase (Homo sapiens). Kind of experiment: Concentration required to inhibit beta-galactosidase; IA means inactive.
The target of experiment [9] is T2, Alpha-galactosidase A (Homo sapiens). Kind of experiment: Concentration required to inhibit alpha-galactocosidase.
Experiment [10] concerns the target T1, Beta-mannosidase (Rattus norvegicus). Kind of experiment: Concentration required to inhibit beta-mannosidase.

Chain of Beta-glucosidase A (Caldicellulosiruptor saccharolyticus) (P10482 whole entry): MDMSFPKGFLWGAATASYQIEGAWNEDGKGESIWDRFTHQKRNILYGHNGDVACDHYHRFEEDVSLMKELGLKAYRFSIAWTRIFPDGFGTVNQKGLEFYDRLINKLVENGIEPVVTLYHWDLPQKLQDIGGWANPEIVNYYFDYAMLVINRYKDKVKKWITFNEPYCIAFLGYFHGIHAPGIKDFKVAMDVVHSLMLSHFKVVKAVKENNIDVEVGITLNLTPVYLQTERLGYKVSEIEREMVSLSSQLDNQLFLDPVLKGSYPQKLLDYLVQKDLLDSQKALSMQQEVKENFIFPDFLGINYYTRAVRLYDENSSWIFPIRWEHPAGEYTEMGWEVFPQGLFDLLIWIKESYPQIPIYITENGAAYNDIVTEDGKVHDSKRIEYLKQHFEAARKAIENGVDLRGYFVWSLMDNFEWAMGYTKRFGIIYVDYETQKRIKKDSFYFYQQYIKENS
Chain of Maltase-glucoamylase (Homo sapiens) (O43451 whole entry, looked up): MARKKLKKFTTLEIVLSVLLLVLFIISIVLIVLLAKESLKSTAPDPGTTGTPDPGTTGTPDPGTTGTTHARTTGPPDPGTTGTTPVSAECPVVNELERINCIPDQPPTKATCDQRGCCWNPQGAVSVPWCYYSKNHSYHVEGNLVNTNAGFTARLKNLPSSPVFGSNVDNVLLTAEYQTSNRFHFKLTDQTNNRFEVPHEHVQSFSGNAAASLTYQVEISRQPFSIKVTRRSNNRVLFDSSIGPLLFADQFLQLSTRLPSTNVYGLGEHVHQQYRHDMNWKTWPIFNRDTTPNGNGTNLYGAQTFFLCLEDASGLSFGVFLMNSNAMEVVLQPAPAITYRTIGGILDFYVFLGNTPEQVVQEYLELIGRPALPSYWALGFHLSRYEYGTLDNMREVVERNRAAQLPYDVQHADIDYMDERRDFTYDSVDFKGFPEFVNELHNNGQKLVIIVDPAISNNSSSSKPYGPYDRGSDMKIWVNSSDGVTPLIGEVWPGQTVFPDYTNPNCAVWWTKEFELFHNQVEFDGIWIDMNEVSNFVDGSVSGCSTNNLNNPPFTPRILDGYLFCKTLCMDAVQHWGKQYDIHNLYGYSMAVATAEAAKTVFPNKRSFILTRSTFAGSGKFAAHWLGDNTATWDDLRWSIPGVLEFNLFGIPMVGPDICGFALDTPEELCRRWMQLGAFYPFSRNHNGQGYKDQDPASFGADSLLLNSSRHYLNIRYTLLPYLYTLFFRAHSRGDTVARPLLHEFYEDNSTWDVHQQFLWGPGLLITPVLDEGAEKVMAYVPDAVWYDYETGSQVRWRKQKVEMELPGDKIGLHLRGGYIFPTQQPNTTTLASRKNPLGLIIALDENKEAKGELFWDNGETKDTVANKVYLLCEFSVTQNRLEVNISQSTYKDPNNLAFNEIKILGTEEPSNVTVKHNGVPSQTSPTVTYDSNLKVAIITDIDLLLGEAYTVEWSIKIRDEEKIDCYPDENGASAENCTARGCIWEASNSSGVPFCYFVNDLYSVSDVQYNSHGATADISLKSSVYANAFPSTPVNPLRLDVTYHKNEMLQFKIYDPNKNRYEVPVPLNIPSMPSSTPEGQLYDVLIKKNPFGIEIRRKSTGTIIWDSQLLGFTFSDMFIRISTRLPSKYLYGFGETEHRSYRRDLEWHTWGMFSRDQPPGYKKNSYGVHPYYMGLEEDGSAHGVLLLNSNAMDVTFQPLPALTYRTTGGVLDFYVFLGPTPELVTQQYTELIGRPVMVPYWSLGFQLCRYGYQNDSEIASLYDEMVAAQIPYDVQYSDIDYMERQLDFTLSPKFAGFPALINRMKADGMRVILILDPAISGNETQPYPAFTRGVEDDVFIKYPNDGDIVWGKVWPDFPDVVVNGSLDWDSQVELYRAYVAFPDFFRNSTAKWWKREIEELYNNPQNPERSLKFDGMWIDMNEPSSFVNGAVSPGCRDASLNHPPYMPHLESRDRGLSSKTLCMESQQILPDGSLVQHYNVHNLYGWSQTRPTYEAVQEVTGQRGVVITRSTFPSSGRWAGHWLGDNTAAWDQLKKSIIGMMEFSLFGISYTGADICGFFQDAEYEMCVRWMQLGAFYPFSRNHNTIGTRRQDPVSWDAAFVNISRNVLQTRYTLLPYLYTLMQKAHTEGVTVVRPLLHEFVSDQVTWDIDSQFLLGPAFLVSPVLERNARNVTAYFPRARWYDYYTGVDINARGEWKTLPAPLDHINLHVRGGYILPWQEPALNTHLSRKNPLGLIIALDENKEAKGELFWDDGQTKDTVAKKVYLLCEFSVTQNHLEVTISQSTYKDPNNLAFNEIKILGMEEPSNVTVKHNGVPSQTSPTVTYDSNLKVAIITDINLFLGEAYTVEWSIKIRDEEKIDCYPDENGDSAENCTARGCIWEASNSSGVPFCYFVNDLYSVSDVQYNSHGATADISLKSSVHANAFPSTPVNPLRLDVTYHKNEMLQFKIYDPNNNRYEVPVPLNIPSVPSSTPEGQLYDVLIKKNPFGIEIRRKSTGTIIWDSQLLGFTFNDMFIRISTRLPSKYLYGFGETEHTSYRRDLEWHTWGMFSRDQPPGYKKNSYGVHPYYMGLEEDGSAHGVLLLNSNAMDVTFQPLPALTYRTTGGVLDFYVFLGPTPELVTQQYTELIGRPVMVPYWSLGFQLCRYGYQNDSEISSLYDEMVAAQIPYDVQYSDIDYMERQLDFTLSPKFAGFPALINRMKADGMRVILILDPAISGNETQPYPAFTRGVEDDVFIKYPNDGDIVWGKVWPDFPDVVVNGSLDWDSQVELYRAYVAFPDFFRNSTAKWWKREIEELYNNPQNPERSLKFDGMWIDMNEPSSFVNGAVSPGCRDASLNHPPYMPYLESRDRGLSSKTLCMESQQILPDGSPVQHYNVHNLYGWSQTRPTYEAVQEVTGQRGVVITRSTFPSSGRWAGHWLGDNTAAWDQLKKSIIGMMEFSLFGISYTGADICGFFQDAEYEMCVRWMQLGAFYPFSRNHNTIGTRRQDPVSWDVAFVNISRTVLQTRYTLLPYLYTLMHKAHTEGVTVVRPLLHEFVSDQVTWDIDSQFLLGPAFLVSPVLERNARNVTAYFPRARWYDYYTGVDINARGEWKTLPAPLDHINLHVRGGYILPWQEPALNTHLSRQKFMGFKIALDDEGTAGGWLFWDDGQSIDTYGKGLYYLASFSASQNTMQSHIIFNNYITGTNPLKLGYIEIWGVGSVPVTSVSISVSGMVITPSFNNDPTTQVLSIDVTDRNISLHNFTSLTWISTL

Consider `O[C@@H]1[C@@H](O)[C@@H](O)[C@H](O[C@H]2[C@@H](O)[C@H](O)[C@@H](O)[C@@H](O)[C@@H]2O)[C@@H](O)[C@H]1O`, for which the Concentration entry in experiment [1], in experiment [2], in [3] and in experiment [4] was “inactive” throughout. The Concentration in [5] is 600 µM; in experiment [6], 800 µM.

For the compound `O[C@H]1[C@H](O)[C@@H](O)[C@H](O)[C@@H](O)[C@H]1O`, the Concentration entry in [1], in experiment [2], in [7], in experiment [3], in experiment [4] and in experiment [8] was “inactive” in each case.

With `O[C@H]1[C@H](O)[C@@H](O[C@H]2[C@H](O)[C@H](O)C=C[C@@H]2O)C=C[C@H]1O`, the Concentration result in experiment [1], in [2] and in [3] was “inactive” throughout. The results for the Concentration in [9], in [5] and in [6] were 850 µM, 190 µM and 60 µM, respectively.

On to `O[C@H]1[C@H](O)[C@@H](O[C@H]2C=C[C@@H](O)[C@@H](O)[C@@H]2O)C=C[C@H]1O`, for which the Concentration result in experiment [1], in experiment [7] and in experiment [3] was “inactive” throughout. Besides, the values for the Concentration in experiment [9], in [10] and in experiment [5] were 275 µM, 1.5 mM and 250 µM, respectively.

Take `O[C@H]1[C@H](O)[C@@H](O)C=C[C@H]1O`: the Concentration entry in experiment [1], in [2], in [7], in [3] and in experiment [4] was “inactive” in each case. Further, the Concentration in experiment [5] was found to be 600 µM.
